Test results taken from PubChem BioAssay AID2060489 (Molecular Pharmacology Branch, DTP, NCI, 2025).
pIC50: −log10 of the molar value.

System: 922993-354-T-J3-PDC complex spheroids, viability
Assay: Anticancer human tumor 922993-354-T-J3-PDC patient-derived endometrial carcinoma cell line growth inhibition [GQUAD]
Details: for pIC50: curve of first compound; for viability, T/C: stronger effect = lower value; active means viability on the fitted dose curve at most 10% of control; inactive means the rest
Summary of the method: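 Viability of tumor cells grown as complex spheroids with endothelial and stromal cells, exposed to drug combinations. Top concentration at or near clinical Cmax (else 10 microM), diluted in half-log increments.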

[1] = second compound 0.0316 µM, first compound 0.000999 µM
[2] = second compound 0.0316 µM, first compound 0.00316 µM
[3] = second compound 0.0316 µM, first compound 0.00999 µM
[4] = second compound 0.0316 µM, first compound 0.0316 µM
[5] = second compound 0.0316 µM, first compound 0.0999 µM
[6] = second compound 0.0316 µM, first compound 0.316 µM
[7] = second compound 0.1 µM, first compound 0.000999 µM
[8] = second compound 0.1 µM, first compound 0.00316 µM
[9] = second compound 0.1 µM, first compound 0.00999 µM
[10] = second compound 0.1 µM, first compound 0.0316 µM
[11] = second compound 0.1 µM, first compound 0.0999 µM
[12] = second compound 0.1 µM, first compound 0.316 µM
[13] = second compound 0.316 µM, first compound 0.000999 µM
[14] = second compound 0.316 µM, first compound 0.00316 µM
[15] = second compound 0.316 µM, first compound 0.00999 µM
[16] = second compound 0.316 µM, first compound 0.0316 µM
[17] = second compound 0.316 µM, first compound 0.0999 µM
[18] = second compound 0.316 µM, first compound 0.316 µM
[19] = second compound 1 µM, first compound 0.000999 µM
[20] = second compound 1 µM, first compound 0.00316 µM
[21] = second compound 1 µM, first compound 0.00999 µM
[22] = second compound 1 µM, first compound 0.0316 µM
[23] = second compound 1 µM, first compound 0.0999 µM
[24] = second compound 1 µM, first compound 0.316 µM
[25] = second compound 3.16 µM, first compound 0.000999 µM
[26] = second compound 3.16 µM, first compound 0.00316 µM
[27] = second compound 3.16 µM, first compound 0.00999 µM
[28] = second compound 3.16 µM, first compound 0.0316 µM
[29] = second compound 3.16 µM, first compound 0.0999 µM
[30] = second compound 3.16 µM, first compound 0.316 µM
[31] = second compound 10 µM, first compound 0.000999 µM
[32] = second compound 10 µM, first compound 0.00316 µM
[33] = second compound 10 µM, first compound 0.00999 µM
[34] = second compound 10 µM, first compound 0.0316 µM
[35] = second compound 10 µM, first compound 0.0999 µM
[36] = second compound 10 µM, first compound 0.316 µM
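Further: spheroids exposed to compounds for seven days.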
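Wherever viability, T/C is given: 100% = DMSO vehicle control viability.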

CC[C@@]1(O)C(=O)OCc2c1cc1n(c2=O)Cc2cc3c(CN(C)C)c(O)ccc3nc2-1 + Cc1[nH]c2ccc(F)cc2c1-c1nc2c3cccnc3c3ncccc3c2[nH]1
6.51: pIC50 (second compound 1 µM)
6.55: pIC50 (second compound 10 µM)
inactive: viability, T/C [1] 91.8% | viability, T/C [2] 95.9% | viability, T/C [3] 109% | viability, T/C [4] 105% | viability, T/C [5] 82.4% | viability, T/C [6] 57.1% | viability, T/C [7] 94% | viability, T/C [8] 98.1% | viability, T/C [9] 79.3% | viability, T/C [10] 104% | viability, T/C [11] 77% | viability, T/C [12] 55.6% | viability, T/C [13] 125% | viability, T/C [14] 84.3% | viability, T/C [15] 103% | viability, T/C [16] 92.1% | viability, T/C [17] 97.5% | viability, T/C [18] 52.4% | viability, T/C [19] 97.1% | viability, T/C [20] 106% | viability, T/C [21] 89.8% | viability, T/C [22] 104% | viability, T/C [23] 90.6% | viability, T/C [24] 48.7% | viability, T/C [25] 74.5% | viability, T/C [26] 108% | viability, T/C [27] 93.1% | viability, T/C [28] 93.3% | viability, T/C [29] 89.5% | viability, T/C [30] 67.4% | viability, T/C [31] 134% | viability, T/C [32] 91.1% | viability, T/C [33] 109% | viability, T/C [34] 97.2% | viability, T/C [35] 74.6% | viability, T/C [36] 45.2%
< 6.50: pIC50 (second compound 0.0316 µM) | pIC50 (second compound 0.1 µM) | pIC50 (second compound 0.316 µM) | pIC50 (second compound 3.16 µM)

CCc1c2c(nc3ccc(O)cc13)-c1cc3c(c(=O)n1C2)COC(=O)[C@]3(O)CC + Cc1[nH]c2ccc(F)cc2c1-c1nc2c3cccnc3c3ncccc3c2[nH]1
8.18: pIC50 (second compound 0.316 µM)
8.10: pIC50 (second compound 1 µM)
8.17: pIC50 (second compound 10 µM)
inactive: viability, T/C [1] 91.8% | viability, T/C [2] 68.3% | viability, T/C [3] 48.7% | viability, T/C [4] 22.1% | viability, T/C [5] 25.9% | viability, T/C [6] 32.9% | viability, T/C [7] 103% | viability, T/C [8] 81.9% | viability, T/C [9] 44.2% | viability, T/C [10] 24.4% | viability, T/C [11] 25.4% | viability, T/C [12] 33% | viability, T/C [13] 119% | viability, T/C [14] 76.1% | viability, T/C [15] 36.6% | viability, T/C [16] 23.4% | viability, T/C [17] 24.6% | viability, T/C [18] 36.5% | viability, T/C [19] 101% | viability, T/C [20] 82.4% | viability, T/C [21] 43.4% | viability, T/C [22] 24.3% | viability, T/C [23] 22.6% | viability, T/C [24] 32.1% | viability, T/C [25] 105% | viability, T/C [26] 67.2% | viability, T/C [27] 53.6% | viability, T/C [28] 15.6% | viability, T/C [29] 31.4% | viability, T/C [30] 28.9% | viability, T/C [31] 102% | viability, T/C [32] 65.4% | viability, T/C [33] 48.5% | viability, T/C [34] 18.8% | viability, T/C [35] 22.9% | viability, T/C [36] 33.6%
8.12: pIC50 (second compound 0.0316 µM) | pIC50 (second compound 3.16 µM)
8.09: pIC50 (second compound 0.1 µM)

COc1cc(C2c3cc4c(cc3C(OC3OC5COC(C)OC5C(O)C3O)C3COC(=O)C23)OCO4)cc(OC)c1O (stereo unspecified) + Cc1[nH]c2ccc(F)cc2c1-c1nc2c3cccnc3c3ncccc3c2[nH]1
< 5.00: pIC50 (second compound 0.0316 µM) | pIC50 (second compound 0.1 µM) | pIC50 (second compound 0.316 µM) | pIC50 (second compound 1 µM) | pIC50 (second compound 3.16 µM) | pIC50 (second compound 10 µM)
inactive: viability, T/C [4] 95.3% | viability, T/C (second compound 0.0316 µM, first compound 0.1 µM) 89.1% | viability, T/C [6] 83.8% | viability, T/C (second compound 0.0316 µM, first compound 1 µM) 99.4% | viability, T/C (second compound 0.0316 µM, first compound 3.16 µM) 76.6% | viability, T/C (second compound 0.0316 µM, first compound 10 µM) 61.3% | viability, T/C [10] 113% | viability, T/C (second compound 0.1 µM, first compound 0.1 µM) 97.5% | viability, T/C [12] 92.2% | viability, T/C (second compound 0.1 µM, first compound 1 µM) 92.6% | viability, T/C (second compound 0.1 µM, first compound 3.16 µM) 76.2% | viability, T/C (second compound 0.1 µM, first compound 10 µM) 62.7% | viability, T/C [16] 110% | viability, T/C (second compound 0.316 µM, first compound 0.1 µM) 109% | viability, T/C [18] 84.1% | viability, T/C (second compound 0.316 µM, first compound 1 µM) 110% | viability, T/C (second compound 0.316 µM, first compound 3.16 µM) 56.4% | viability, T/C (second compound 0.316 µM, first compound 10 µM) 61.8% | viability, T/C [22] 138% | viability, T/C (second compound 1 µM, first compound 0.1 µM) 121% | viability, T/C [24] 96.6% | viability, T/C (second compound 1 µM, first compound 1 µM) 75.8% | viability, T/C (second compound 1 µM, first compound 3.16 µM) 72.4% | viability, T/C (second compound 1 µM, first compound 10 µM) 71.4% | viability, T/C [28] 125% | viability, T/C (second compound 3.16 µM, first compound 0.1 µM) 109% | viability, T/C [30] 76.2% | viability, T/C (second compound 3.16 µM, first compound 1 µM) 97.6% | viability, T/C (second compound 3.16 µM, first compound 3.16 µM) 72.3% | viability, T/C (second compound 3.16 µM, first compound 10 µM) 60.5% | viability, T/C [34] 111% | viability, T/C (second compound 10 µM, first compound 0.1 µM) 97.7% | viability, T/C [36] 79.1% | viability, T/C (second compound 10 µM, first compound 1 µM) 82.8% | viability, T/C (second compound 10 µM, first compound 3.16 µM) 74.2% | viability, T/C (second compound 10 µM, first compound 10 µM) 58.8%
